One experiment has as its target CMV-polymerase (Human cytomegalovirus (strain AD169) (HHV-5) (Human herpesvirus 5), UniProt P08546). The experiment can be described thus: biochemical.
The test system of a further experiment is CMV. The experiment can be described thus: microbe, parasite or virus in culture. The class given is cell-based.
Setting [1] is: read-out: CMV-polymerase Biochemical IC50.
Where [2] appears, read: Human betaherpesvirus 5, 72 h, read-out: CMV-Luc Cellular EC50, NN-NHDF cells, MOI 1, 72 hrs.
Setting [3] is: NN-NHDF cells, MOI 1, 72 hrs, read-out: CMV-Luc Cellular EC50.

Where two headings read alike, the source gives them in different places.

The term IC50 denotes the concentration needed to halve the response being measured. A word on the EC50: it is the concentration that produces a half-maximal response. Take `Cn1nc(C(=O)NCc2ccc(Cl)cc2)c2c1C(=O)N(CC1(S(=O)(=O)NCCO)CC1)CC2` [Example 143, N-(4-Chlorobenzyl)-6-((1-(N-(2-hydroxyethyl)sulfamoyl)cyclopropyl)methyl)-1-methyl-7-oxo-4,5,6,7-tetrahydro-1H-pyrazolo[3,4-c]pyridine-3-carboxamide]: the IC50 on CMV-polymerase (setting [1]) came to 19 nM. Moreover, the EC50 in the experiment on CMV (setting [2]) stood at 138 nM.

Take `Cn1nc(C(=O)NCc2ccc(Cl)cc2)c2c1C(=O)N(CC1(S(=O)(=O)C(C)(C)COCCO)CC1)CC2` [Example 88, N-(4-Chlorobenzyl)-6-((1-((1-(2-hydroxyethoxy)-2-methylpropan-2-yl)sulfonyl)cyclopropyl)methyl)-1-methyl-7-oxo-4,5,6,7-tetrahydro-1H-pyrazolo[3,4-c]pyridine-3-carboxamide]: 2 nM corresponded to half-maximal inhibition at CMV-polymerase (CMV-polymerase Biochemical IC50) (IC50). For the same molecule, in the experiment with CMV (setting [2]), the EC50 was found to be 36 nM.

On to `Cn1nc(C(=O)NCc2ccc(C#N)cc2)c2c1C(=O)N(CC1(S(=O)(=O)N3CCOCC3)CC1)CC2` [Example 124, N-(4-Cyanobenzyl)-1-methyl-6-((1-(morpholinosulfonyl)cyclopropyl)methyl)-7-oxo-4,5,6,7-tetrahydro-1H-pyrazolo[3,4-c]pyridine-3-carboxamide], for which the IC50 at CMV-polymerase (setting [1]) was 6 nM. Also, the EC50 in the experiment on CMV (setting [2]) was 156 nM.

For `Cc1cc(NS(=O)(=O)C2(CN3CCc4c(C(=O)NCc5ccc(Cl)cc5)nn(C)c4C3=O)CC2)no1` [Example 166, N-(4-Chlorobenzyl)-1-methyl-6-((1-(N-(5-methylisoxazol-3-yl)sulfamoyl)cyclopropyl)methyl)-7-oxo-4,5,6,7-tetrahydro-1H-pyrazolo[3,4-c]pyridine-3-carboxamide], at CMV-polymerase (setting [1]), the IC50 worked out at 1 nM. The EC50 in the experiment with CMV (setting [2]) was determined as 88 nM.

Consider `Cn1nc(C(=O)NCc2ccc(C#N)cc2)c2c1C(=O)N(CC1(S(=O)(=O)N3C[C@H](N)[C@@H](O)C3)CC1)CC2` [Example 140, 6-((1-(((3S,4S)-3-Amino-4-hydroxypyrrolidin-1-yl)sulfonyl)cyclopropyl)methyl)-N-(4-cyanobenzyl)-1-methyl-7-oxo-4,5,6,7-tetrahydro-1H-pyrazolo[3,4-c]pyridine-3-carboxamide], for which the IC50 at CMV-polymerase (setting [1]) is 11 nM. The EC50 with CMV (setting [2]) is 418 nM.

Regarding `CC(N)COCC(C)(C)S(=O)(=O)C1(CN2CCc3c(C(=O)NCc4ccc(C#N)cc4)nn(C)c3C2=O)CC1` (single isomer, unassigned) [Example 99, (R)- or (S)-6-((1-((1-(2-Aminopropoxy)-2-methylpropan-2-yl)sulfonyl)cyclopropyl)methyl)-N-(4-cyanobenzyl)-1-methyl-7-oxo-4,5,6,7-tetrahydro-1H-pyrazolo[3,4-c]pyridine-3-carboxamide], the EC50 in the experiment on CMV (setting [2]) turned out to be 14 nM.

As for `Cn1nc(C(=O)NCc2ccc(C#N)cc2)c2c1C(=O)N(CC1(S(=O)(=O)N3CCC(C)(O)C3)CC1)CC2` (single isomer, unassigned) [Example 131, (R)- or (S)-N-(4-Cyanobenzyl)-6-((1-((3-hydroxy-3-methylpyrrolidin-1-yl)sulfonyl)cyclopropyl)methyl)-1-methyl-7-oxo-4,5,6,7-tetrahydro-1H-pyrazolo[3,4-c]pyridine-3-carboxamide], the concentration for half-maximal inhibition (IC50) on CMV-polymerase (setting [1]) came out at 16 nM.

On to `CNCC(O)C(C)(C)S(=O)(=O)C1(CN2CCc3c(C(=O)NCc4ccc(C#N)cc4)nn(C)c3C2=O)CC1` (single isomer, unassigned) [Example 202, (R)- or (S)-N-(4-Cyanobenzyl)-6-((1-((3-hydroxy-2-methyl-4-(methylamino)butan-2-yl)sulfonyl)cyclopropyl)methyl)-1-methyl-7-oxo-4,5,6,7-tetrahydro-1 H-pyrazolo[3,4-c]pyridine-3-carboxamide], for which, in the experiment with CMV (setting [2]), the EC50 was 30 nM.

As to `N#Cc1ccc(CNC(=O)c2n[nH]c3c2CCN(CC2(S(=O)(=O)C4CC4)CC2)C3=O)cc1` [Example 45, N-(4-Cyanobenzyl)-6-((1-(cyclopropylsulfonyl)cyclopropyl)methyl)-7-oxo-4,5,6,7-tetrahydro-1H-pyrazolo[3,4-c]pyridine-3-carboxamide], in the experiment on CMV (setting [3]), the EC50 was 146 nM.

On to `Cn1nc(C(=O)NCc2ccc(Cl)cc2)c2c1C(=O)N(CC1(S(=O)(=O)C(C)(CN)CO)CC1)CC2` (stereo not drawn) [Example 186, 6-((1-((1-Amino-3-hydroxy-2-methylpropan-2-yl)sulfonyl)cyclopropyl)methyl)-N-(4-chlorobenzyl)-1-methyl-7-oxo-4,5,6,7-tetrahydro-1H-pyrazolo[3,4-c]pyridine-3-carboxamide], for which, in the experiment on CMV (Human betaherpesvirus 5, 72 h, NN-NHDF cells, MOI 1, 72 hrs, read-out: CMV-Luc Cellular EC50), the EC50 was 90 nM.

For the molecule `CC(N)COCC(C)(C)S(=O)(=O)C1(CN2CCc3c(C(=O)NCc4ccc(Cl)cc4)nn(C)c3C2=O)CC1` (single isomer, unassigned) [Example 97, (R)- or (S)-6-((1-((1-(2-Aminopropoxy)-2-methylpropan-2-yl)sulfonyl)cyclopropyl)methyl)-N-(4-chlorobenzyl)-1-methyl-7-oxo-4,5,6,7-tetrahydro-1H-pyrazolo[3,4-c]pyridine-3-carboxamide], the EC50 in the experiment on CMV (setting [2]) was 8 nM.

As to `Cn1nc(C(=O)NCc2ccc(C#N)cc2)c2c1C(=O)N(CC1(S(=O)(=O)C(C)(C)C(O)CN)CC1)CC2` (single isomer, unassigned) [Example 199, (R)- or (S)-6-((1-((4-Amino-3-hydroxy-2-methylbutan-2-yl)sulfonyl)cyclopropyl)methyl)-N-(4-cyanobenzyl)-1-methyl-7-oxo-4,5,6,7-tetrahydro-1H-pyrazolo[3,4-c]pyridine-3-carboxamide], the EC50 was 19 nM in the experiment on CMV (setting [2]) and 18 nM with CMV (Human betaherpesvirus 5, read-out: Cellular activity against CMV (EC50), Table 18).

Take `CN(C(C)(CO)CO)S(=O)(=O)C1(CN2CCc3c(C(=O)NCc4ccc(Cl)cc4)nn(C)c3C2=O)CC1` [Example 154, N-(4-chlorobenzyl)-6-((1-(N-(1,3-dihydroxy-2-methylpropan-2-yl)-N-methylsulfamoyl)cyclopropyl)methyl)-1-methyl-7-oxo-4,5,6,7-tetrahydro-1H-pyrazolo[3,4-c]pyridine-3-carboxamide]: the EC50 with CMV (setting [2]) amounted to 83 nM.

As to `CC(N)COCC(C)(C)S(=O)(=O)C1(CN2CCc3c(C(=O)NCc4ccc(Cl)cc4)nn(C)c3C2=O)CC1` (single isomer, unassigned) [Example 98, (R)- or (S)-6-((1-((1-(2-Aminopropoxy)-2-methylpropan-2-yl)sulfonyl)cyclopropyl)methyl)-N-(4-chlorobenzyl)-1-methyl-7-oxo-4,5,6,7-tetrahydro-1H-pyrazolo[3,4-c]pyridine-3-carboxamide], the EC50 in the experiment with CMV (read-out: CMV-Luc Cellular EC50, NN-NHDF cells, MOI 1, 72 hrs) stood at 8 nM.

Take `CN(C)CC(O)C(C)(C)S(=O)(=O)C1(CN2CCc3c(C(=O)NCc4ccc(Cl)cc4)nn(C)c3C2=O)CC1` (single isomer, unassigned) [Example 206, (R)- or (S)-N-(4-Chlorobenzyl)-6-((1-((4-(dimethylamino)-3-hydroxy-2-methylbutan-2-yl)sulfonyl)cyclopropyl)methyl)-1-methyl-7-oxo-4,5,6,7-tetrahydro-1H-pyrazolo[3,4-c]pyridine-3-carboxamide]: in the experiment with CMV (setting [2]), the concentration giving a half-maximal response (EC50) came to 71 nM.

For `CC1Cc2c(C(=O)NCc3ccc(C#N)cc3)nn(C)c2C(=O)N1CC1(S(C)(=O)=O)CC1` (single isomer, unassigned) [Example 41, (R)- or (S)-N-(4-cyanobenzyl)-1,5-dimethyl-6-((1-(methylsulfonyl)cyclopropyl)methyl)-7-oxo-4,5,6,7-tetrahydro-1H-pyrazolo[3,4-c]pyridine-3-carboxamide], the IC50 on CMV-polymerase (setting [1]) is 9770 nM.

For the molecule `Cn1nc(C(=O)OCc2ccc(C#N)cc2)c2c1C(=O)N(CC1(S(=O)(=O)C3CC3)CC1)CC2` [Example 24, 4-cyanobenzyl 6-((1-(cyclopropylsulfonyl)cyclopropyl)methyl)-1-methyl-7-oxo-4,5,6,7-tetrahydro-1H-pyrazolo[3,4-c]pyridine-3-carboxylate], the EC50 in the experiment with CMV (setting [2]) worked out at 197 nM.

On to `Cn1nc(C(=O)NCc2ccc(C#N)cc2)c2c1C(=O)N(CC1(S(=O)(=O)C3CCOC3)CC1)CC2` (single isomer, unassigned) [Example 170, (R)- or (S)-N-(4-Cyanobenzyl)-1-methyl-7-oxo-6-((1-((tetrahydrofuran-3-yl)sulfonyl)cyclopropyl)methyl)-4,5,6,7-tetrahydro-1H-pyrazolo[3,4-c]pyridine-3-carboxamide], for which the EC50 in the experiment with CMV (setting [2]) came to 124 nM.

Consider `Cn1nc(C(=O)NCc2ccc(C#N)cc2)c2c1C(=O)N(CC1(S(=O)(=O)C(C)(CN)CO)CC1)CC2` (single isomer, unassigned) [Example 184, (R)- or (S)-6-((1-((1-Amino-3-hydroxy-2-methylpropan-2-yl)sulfonyl)cyclopropyl)methyl)-N-(4-cyanobenzyl)-1-methyl-7-oxo-4,5,6,7-tetrahydro-1H-pyrazolo[3,4-c]pyridine-3-carboxamide], for which the EC50 with CMV (setting [2]) came out at 165 nM.

On to `Cn1nc(C(=O)NCc2ccc(C#N)cc2)c2c1C(=O)N(CC1(S(=O)(=O)C(C)(C)COCCO)CC1)CC2` [Example 87, N-(4-Cyanobenzyl)-6-((1-((1-(2-hydroxyethoxy)-2-methylpropan-2-yl)sulfonyl)cyclopropyl)methyl)-1-methyl-7-oxo-4,5,6,7-tetrahydro-1H-pyrazolo[3,4-c]pyridine-3-carboxamide], for which, in the experiment on CMV (setting [3]), the concentration for a half-maximal effect (EC50) came out at 44 nM.

For the molecule `CNCC(O)C(C)(C)S(=O)(=O)C1(CN2CCc3c(C(=O)NCc4ccc(Cl)cc4)nn(C)c3C2=O)CC1` (single isomer, unassigned) [Example 204, (R)- or (S)-N-(4-Chlorobenzyl)-6-((1-((3-hydroxy-2-methyl-4-(methylamino)butan-2-yl)sulfonyl)cyclopropyl)methyl)-1-methyl-7-oxo-4,5,6,7-tetrahydro-1 H-pyrazolo[3,4-c]pyridine-3-carboxamide], the EC50 in the experiment with CMV (setting [2]) was 11 nM.

The record behind these values is patent publication US12338220B2, “Antiviral pyrazolopiridinone compounds” (Novartis AG, priority 2019, dated 2025).
